Assay results published in US20100022600A1, “METHODS AND COMPOSITIONS FOR TREATING CENTRAL NERVOUS SYSTEM TUMORS” (priority 2006, published 2010).

How the values were obtained:
[1] = test system: cleaved caspase-3; experiment: Western blot of cleaved caspase-3 in whole-hemisphere lysates, C6 rat glioma model; assay type: in vivo; conditions: 6 d of pio treatment
Protocol: (§1) For western-blot analysis, tumor-containing hemispheres were homogenized in Tris-HCl [50 mM Tris-HCl pH8, 120 mM NaCl, 5 mM EDTA, 0.5% (v/v) NP-40, […] phenylmethylsulfonyl fluoride (PMSF)] and sonicated. Homogenates were collected by centrifugation (15 min 11000 g. 4° C.) and protein concentration in the supernatant was determined using the Bio-Rad Protein Assay (Biorad, Munich, Germany). Lysates (20-40 μg) were separated on a 7% (w/v) sodium dodecyl sulfate (SDS)-polyacrylamide gel under reducing conditions and transferred to a PVDF membrane (Millipore, Bedford, Mass., USA). Non-specific binding was blocked by incubation with 5% (w/v) skimmed milk in TBS for 2 h. Following incubation with the primary antibody overnight at 4° C. [rabbit anti-BAX 1:1000, rabbit anti-cleaved caspase-3 1:1000, mouse […] 1:1000, goat anti-MMP-9 1:1000 in TBS containing 0.1% (v/v) Tween 20] membranes were washed three times in TBS/Tween for 5 min and subsequently incubated for 120 min in TBS/Tween containing secondary peroxidase-conjugated antibody at room temperature (anti-rabbit 1:1000, anti-mouse 1:1000; anti-goat 1:1000 respectively). Signals were visualized by chemoluminescence (Pierce, Rockford, Ill., USA) and band intensities were quantified with NIH Image 1.62 software (Bethesda, Md., USA).

[2] = test system: Bax; experiment: Western blot of Bax in whole-hemisphere lysates, C6 rat glioma model; assay type: in vivo
Protocol: as §1

[3] = test system: C6 glioma tumor cells; experiment: BrdU incorporation in vivo; design: species or system rat; conditions: 14 d
Protocol: At thirteen days of treatment animals were intraperitoneally injected with 300 mg/kg of 5-bromodeoxyuridine (BrdU; Sigma, St. Louis, Mo.), a thymidine analog that incorporates into the DNA of dividing cells during S phase and can be detected immunohistochemically. Twenty-four hours later, these animals were anesthetized and perfused with phosphate-buffered saline (PBS). Brains were dissected, frozen, cut and immunostained in the following manner: Sections were fixed in 4% paraformaldehyde, washed in PBS, and incubated in 2 N HCl for 10 min at room temperature. Sections were again washed in PBS and incubated in BrdU primary antibody (rat monoclonal 1:100, Abcam, Cambridge, UK) in PBS containing 5% normal goat serum overnight at 4 C. After washing with PBS, sections were incubated in rhodamine-labeled anti-rat secondary antibody (1:100, Jackson, West Grove, Pa., USA) in PBS containing 5% normal goat serum for 1 h at room temperature. The number of dividing cells present in the tumor of these BrdU-stained sections was counted and compared to total amount of tumor cells stained with DAPI.

[4] = test system: CS-56; experiment: CS-56 expression in vivo (western blot, immunohistochemistry); design: species or system rat
Protocol: as §1, with “Md., USA). Frozen brain sections were first blocked with 5% normal goat serum or normal horse serum in PBS and subsequently incubated with rabbit anti-Ki-67 antibody (1:200 dilution), mouse anti-CS-56 (1:100 dilution), goat anti-MMP-9 (1:100 dilution) or rabbit anti-cleaved caspase-3 antibody (1:200 dilution) at 4° C. overnight. Sections were washed extensively with PBS before incubation with secondary antibodies. Incubation was carried at room temperature for 1 h. After washing with PBS three times, stained slides were mounted with PBS/glycerol (1:1) and viewed under a fluorescent microscope (Leica, Germany).” for “Md., USA).”

[5] = test system: Rat C6 glioma cells; experiment: MTT viability assay, rat C6 glioma cells; assay type: cell-based; conditions: 10 and 30 μM; concentration- and time-dependent; significant at 5 d and 7 d (30 μM) and at 7 d (10 μM)
Protocol: Rat C6 glioma cells were grown in DMEM and human glioma cells (U87, A172) in RPMI, supplemented with 10% (v/v) fetal calf serum, 100 U/mL penicillin and 100 U/mL streptomycin in a 5% CO2 atmosphere. Primary astrocyte cultures were prepared as described previously (J Neurosci 1998; 18: 4451-60) and grown in DMEM, supplemented with 2.5% (v/v) fetal calf serum, 100 U/mL penicillin and 100 U/mL streptomycin in a 5% CO2 atmosphere. […] Experiments were performed in triplicate.

[6] = test system: C6 glioma cells; experiment: Boyden chamber assay, C6 cell migration; assay type: cell-based, rat
Protocol: C6 cell migration in the presence or absence of pio was assessed using a Boyden chamber (AP48, NeuroProbe, Gaithersburg, Md., USA) with an 8 μm polycarbonate PVPF-filter (Osmonics, Minnetonka, Minn., USA). Cells were suspended in DMEM containing 2.5% fetal calf serum and pio at 30 μM or vehicle (DMSO). C6 glioma cells were pretreated for 24 h in the presence or absence of 30 μM pio. Cells (5×10^3 in 50 μl pio/medium or vehicle/medium) were then plated in the wells of the upper compartment of the chamber (6 well/condition), and the wells of the lower compartment were filled with DMEM. Incubation was performed at 37° C. in 5% CO2 for 4 h. After incubation, cells on the upper surface of the filter, which had not migrated, were gently scraped off, and the filters were then fixed in methanol and subsequently stained with DAPI (1:500 in PBS; Sigma, St. Louis, Mo., USA). The number of cells which migrated to the lower surface of the filter, was counted using public domain software NIH Image 1.62 (Bethesda, Md., USA). Total number of migrating cells under pio treated and vehicle treated condition were compared statistically. Experiments were performed in duplicate.

Structure (SMILES): CCc1ccc(CCOc2ccc(CC3SC(=O)NC3=O)cc2)nc1 (stereo not drawn) [pioglitazone, 5-[4-[2-(5-ethylpyridin-2-yl)ethoxyl]benzyl]thiazolidine-2,4-dione]
- induction of cleaved caspase-3 (densitometry) [1]: 2.88 fold
- Bax-protein levels versus vehicle (densitometry), in words ([2]; 3, 6, 9 and 14 d): significant difference
- induction of Bax protein (densitometry) ([2]; 6 d of pio treatment): 1.66 fold
- upregulation of proapoptotic proteins ([2]; after 21 days of treatment (data not shown)): not associated with an upregulation of proapoptotic proteins
- BrdU-incorporation [3]: reduced
- percentage of BrdU positive cells [3]: significantly lower
- CS-56 expression (western blot) ([4]; tissue lysates): upregulation of CS-56 expression
- increase in CS-56 protein levels (densitometry) ([4]; tissue lysates): around 56%
- CS-56 expression (immunohistochemistry) ([4]; tumor margin towards healthy brain tissue): upregulation of CS-56
- cellular viability, effect in words [5]: significantly reduced the cellular viability
- invasiveness of C6 cells (migrated cells) ([6]; pio 30 μM during the Boyden chamber incubation, 4 h): reduced the invasiveness of C6 cells significantly
- inhibition of invasiveness after pretreatment ([6]; pretreatment of C6 cells for 24 h with 30 μM pio): further increased inhibition
